Measurements: patent US7501430B2 (ArQule, Inc., priority 2006, dated 2009)

Target: T1, mutant B-RAF (Homo sapiens, UniProt P15056, V600E)
T1 construct: purchased Upstate (Charlottesville, Va.)
Assay: RAF biochemical assay (MEK-1 phosphorylation, anti-phospho MEK1/2 detection)
Settings: @ 10 uM; read-out: Mutant B-RAF % inhibition
In short: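 Detection is by ELISA: after a 30 min room-temperature reaction, plate-captured GST-MEK-1 is probed with anti-phospho MEK1/2, then an AP-tagged secondary antibody with fluorescent Attophos read-out.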

T1 sequence (P15056 whole entry V600E): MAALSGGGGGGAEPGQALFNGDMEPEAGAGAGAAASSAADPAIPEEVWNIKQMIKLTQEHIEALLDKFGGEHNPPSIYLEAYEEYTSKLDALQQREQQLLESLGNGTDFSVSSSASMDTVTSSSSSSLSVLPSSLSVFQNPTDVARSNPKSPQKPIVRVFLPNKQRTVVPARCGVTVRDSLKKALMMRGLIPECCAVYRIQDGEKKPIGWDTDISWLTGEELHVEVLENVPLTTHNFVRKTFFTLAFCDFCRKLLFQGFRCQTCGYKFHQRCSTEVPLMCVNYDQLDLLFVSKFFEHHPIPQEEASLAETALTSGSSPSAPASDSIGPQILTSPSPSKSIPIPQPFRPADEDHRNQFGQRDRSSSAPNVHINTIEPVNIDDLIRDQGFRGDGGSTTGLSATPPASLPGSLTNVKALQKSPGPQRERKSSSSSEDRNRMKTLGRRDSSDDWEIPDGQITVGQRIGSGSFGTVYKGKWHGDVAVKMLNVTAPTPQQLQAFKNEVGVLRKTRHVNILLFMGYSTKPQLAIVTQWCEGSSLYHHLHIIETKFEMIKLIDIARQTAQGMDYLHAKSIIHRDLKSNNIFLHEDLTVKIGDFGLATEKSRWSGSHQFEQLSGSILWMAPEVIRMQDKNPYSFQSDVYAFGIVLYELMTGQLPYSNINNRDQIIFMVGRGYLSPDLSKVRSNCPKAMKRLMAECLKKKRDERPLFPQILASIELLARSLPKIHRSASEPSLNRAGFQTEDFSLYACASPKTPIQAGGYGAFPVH

inhibition at 10 µM	Compound
43%	COc1cccc(-c2nc3sccn3c2-c2ccnc(N[C@@H]3CCCN(C[C@@H]4COC(C)(C)O4)C3)n2)c1 [Example 146, N-((3R)-1-{[(4R)-2,2-dimethyl-1,3-dioxolan-4-yl]methyl}piper-idin-3-yl)-4-[6-(3-methoxy-phenyl)imidazo[2,1-b][1,3]thiazol-5-yl]pyrimidin-2-amine]
36%	CCN1CCC(Nc2nccc(-c3c(-c4ccc(F)cc4)nc4sccn34)n2)CC1 [Example 154, N-(1-ethylpiperidin-4-yl)-4-[6-(4-fluorophenyl)imidazo[2,1-b][1,3]thiazol-5-yl]pyrimidin-2-amine]
53%	COCC(=O)N1CCC(Nc2nccc(-c3c(-c4ccc(F)cc4)nc4occn34)n2)CC1 [Example 163, 4-[6-(4-fluorophenyl)imidazo[2,1-b][1,3]oxazol-5-yl]-N-[1-(methoxyacetyl)piperidin-4-yl]pyrimidin-2-amine]
38%	O=C(C1CCCCC1)N1CCC(Nc2nccc(-c3c(-c4ccc(F)cc4)nc4occn34)n2)CC1 [Example 164, N-[1-(cyclohexylcarbonyl)piperidin-4-yl]-4-[6-(4-fluorophenyl)imidazo[2,1-b][1,3]oxazol-5-yl]pyrimidin-2-amine]
33%	O=C(c1ccncc1)N1CCC(Nc2nccc(-c3c(-c4ccc(F)cc4)nc4occn34)n2)CC1 [Example 165, 4-[6-(4-fluorophenyl)imidazo[2,1-b][1,3]oxazol-5-yl]-N-(1-isonicotinoylpiperidin-4-yl)pyrimidin-2-amine]
76%	O=C(c1ccco1)N1CCC(Nc2nccc(-c3c(-c4ccc(F)cc4)nc4occn34)n2)CC1 [Example 166, 4-[6-(4-fluorophenyl)imidazo[2,1-b][1,3]oxazol-5-yl]-N-[1-(2-furoyl)piperidin-4-yl]pyrimidin-2-amine]

Same assay, conditions: read-out: Mutant B-RAF IC50

Compound	IC50
COc1cccc(-c2nc3sccn3c2-c2ccnc(N[C@@H]3CCCN(C[C@@H](O)CO)C3)n2)c1 [Example 147, (2R)-3-[(3R)-3-({4-[6-(3-methoxyphenyl)imidazo[2,1-b][1,3]thiazol-5-yl]pyrimidin-2-yl}amino)piperidin-1-yl]propane-1,2-diol]	> 3 µM
OC[C@H](O)CN1CCC[C@@H](Nc2nccc(-c3c(-c4cccc(O)c4)nc4sccn34)n2)C1 [Example 148, (2R)-3-[(3R)-3-({4-[6-(3-hydroxyphenyl)imidazo[2,1-b][1,3]thiazol-5-yl]pyrimidin-2-yl}amino)piperidin-1-yl]propane-1,2-diol]	> 3 µM
Fc1ccc(-c2nc3sccn3c2-c2ccnc(NC3CCNCC3)n2)cc1 [Example 155, 4-[6-(4-fluorophenyl)imidazo[2,1-b][1,3]thiazol-5-yl]-N-piperidin-4-ylpyrimidin-2-amine]	2.36 µM
O=C(COc1ccc(Cl)cc1)N1CCC(Nc2nccc(-c3c(-c4ccc(F)cc4)nc4occn34)n2)CC1 [Example 160, N-{1-[(4-chlorophenoxy)acetyl]piperidin-4-yl}-4-[6-(4-fluorophenyl)imidazo[2,1-b][1,3]oxazol-5-yl]pyrimidin-2-amine]	3.85 µM
O=C(c1cccc2cccnc12)N1CCC(Nc2nccc(-c3c(-c4ccc(F)cc4)nc4occn34)n2)CC1 [Example 161, 4-[6-(4-fluorophenyl)Imidazo[2,1-b][1,3]oxazol-5-yl]-N-[1-(quinolin-8-ylcarbonyl)piperidin-4-yl]pyrimidin-2-amine]	1.57 µM
O=C(C1CCNCC1)N1CCC(Nc2nccc(-c3c(-c4ccc(F)cc4)nc4occn34)n2)CC1 [Example 162, 4-[6-(4-fluorophenyl)imidazo[2,1-b][1,3]oxazol-5-yl]-N-[1-(piperidin-4-ylcarbonyl)piper-idin-4-yl]pyrimidin-2-amine]	1.32 µM
O=C(NC1CCCCC1)N1CCC(Nc2nccc(-c3c(-c4ccc(F)cc4)nc4occn34)n2)CC1 [Example 167, N-cyclohexyl-4-({4-[6-(4-fluorophenyl)imidazo[2,1-b][1,3]oxazol-5-yl]pyrimidin-2-yl}amino)piperidine-1-carboxamide]	4.71 µM
O=C(Nc1ccccc1)N1CCC(Nc2nccc(-c3c(-c4ccc(F)cc4)nc4occn34)n2)CC1 [Example 171, 4-({4-[6-(4-fluorophenyl)imidazo[2,1-b][1,3]oxazol-5-yl]pyrimidin-2-yl}amino)-N-phenylpiperidine-1-carboxamide]	4.73 µM
Cc1ccc(NC(=O)N2CCC(Nc3nccc(-c4c(-c5ccc(F)cc5)nc5occn45)n3)CC2)cc1 [Example 172, 4-({4-[6-(4-fluorophenyl)imidazo[2,1-b][1,3]oxazol-5-yl]pyrimidin-2-yl}amino)-N-(4-methylphenyl)piperidine-1-carboxamide]	1.98 µM
COc1ccc(NC(=O)N2CCC(Nc3nccc(-c4c(-c5ccc(F)cc5)nc5occn45)n3)CC2)cc1 [Example 173, 4-({4-[6-(4-fluorophenyl)imidazo[2,1-b][1,3]oxazol-5-yl]pyrimidin-2-yl}amino)-N-(4-methoxyphenyl)piperidine-1-carboxamide]	2.56 µM
O=C(Nc1ccc(F)cc1)N1CCC(Nc2nccc(-c3c(-c4ccc(F)cc4)nc4occn34)n2)CC1 [Example 174, N-(4-fluorophenyl)-4-({4-[6-(4-fluorophenyl)imidazo[2,1-b][1,3]oxazol-5-yl]pyrimidin-2-yl}amino)piperidine-1-carboxamide]	4.73 µM

The remaining lines, values ahead:

IC50	Compound
1.11 µM	CCCCNC(=O)N1CCC(Nc2nccc(-c3c(-c4ccc(F)cc4)nc4occn34)n2)CC1 [Example 168, N-butyl-4-({4-[6-(4-fluorophenyl)imidazo[2,1-b][1,3]oxazol-5-yl]pyrimidin-2-yl}amino)piperidine-1-carboxamide]
1.01 µM	O=C(c1ccccc1)N1CCC(Nc2nccc(-c3c(-c4ccc(F)cc4)nc4occn34)n2)CC1 [Example 159, N-(1-benzoylpiperidin-4-yl)-4-[6-(4-fluorophenyl)imidazo[2,1-b][1,3]oxazol-5-yl]pyrimidin-2-amine]
0.85 µM	COc1cccc(-c2nc3sccn3c2-c2ccnc(N[C@@H]3CCCN(S(C)(=O)=O)C3)n2)c1 [Example 151, 4-[6-(3-methoxyphenyl)imidazo[2,1-b][1,3]thiazol-5-yl]-N-[(3R)-1-(methylsulfonyl)piperidin-3-yl]pyrimidin-2-amine]
0.675 µM	O=S(=O)(c1ccc(F)cc1)N1CCC(Nc2nccc(-c3c(-c4ccc(F)cc4)nc4occn34)n2)CC1 [Example 157, 4-[6-(4-fluorophenyl)imidazo[2,1-b][1,3]oxazol-5-yl]-N-{1-[(4-fluorophenyl)sulfonyl]piperidin-4-yl}pyrimidin-2-amine]
0.465 µM	COc1ccc(C(=O)N2CCC(Nc3nccc(-c4c(-c5ccc(F)cc5)nc5occn45)n3)CC2)cc1 [Example 158, 4-[6-(4-fluorophenyl)imidazo[2,1-b][1,3]oxazol-5-yl]-N-[1-(4-methoxybenzoyl)piperidin-4-yl]pyrimidin-2-amine]
0.428 µM	CCNC(=O)N1CCC(Nc2nccc(-c3c(-c4ccc(F)cc4)nc4occn34)n2)CC1 [Example 156, N-ethyl-4-({4-[6-(4-fluorophenyl)imidazo[2,1-b][1,3]oxazol-5-yl]pyrimidin-2-yl}amino)piperidine-1-carboxamide]
0.266 µM	O=C(NCCc1ccccc1)N1CCC(Nc2nccc(-c3c(-c4ccc(F)cc4)nc4occn34)n2)CC1 [Example 169, 4-({4-[6-(4-fluorophenyl)imidazo[2,1-b][1,3]oxazol-5-yl]pyrimidin-2-yl}amino)-N-(2-phenylethyl)piperidine-1-carboxamide]
0.189 µM	O=C(NCc1ccccc1)N1CCC(Nc2nccc(-c3c(-c4ccc(F)cc4)nc4occn34)n2)CC1 [Example 170, N-benzyl-4-({4-[6-(4-fluorophenyl)imidazo[2,1-b][1,3]oxazol-5-yl]pyrimidin-2-yl}amino)piperidine-1-carboxamide]
0.188 µM	COc1ccc(S(=O)(=O)N2CCC[C@@H](Nc3nccc(-c4c(-c5cccc(OC)c5)nc5sccn45)n3)C2)cc1 [Example 149, 4-[6-(3-methoxyphenyl)imidazo[2,1-b][1,3]thiazol-5-yl]-N-{(3R)-1-[(4-methoxyphenyl)sulfonyl]piperidin-3-yl}pyrimidin-2-amine]
0.116 µM	CS(=O)(=O)N1CCC[C@@H](Nc2nccc(-c3c(-c4cccc(O)c4)nc4sccn34)n2)C1 [Example 152, 3-[5-(2-{[(3R)-1-(methylsulfonyl)piperidin-3-yl]amino}pyrimidin-4-yl)imidazo[2,1-b][1,3]thiazol-6-yl]phenol]
0.092 µM	O=S(=O)(c1ccc(Cl)cc1)N1CCC[C@@H](Nc2nccc(-c3c(-c4cc(O)ccc4O)nc4sccn34)n2)C1 [Example 145, 2-{5-(2-({(3R)-1-[(4-chlorophenyl)sulfonyl]piperidin-3-yl}amino)pyrimidin-4-yl]imidazo[2,1-b][1,3]thiazol-6-yl}benzene-1,4-diol]
0.078 µM	O=S(=O)(c1ccc(F)cc1)N1CCC(Nc2nccc(-c3c(-c4ccc(F)cc4)nc4sccn34)n2)CC1 [Example 153, 4-[6-(4-fiuorophenyl)imidazo[2,1-b][1,3]thiazol-5-yl]-N-{1-[(4-fluorophenyl)sulfonyl]piperidin-4-yl}pyrimidin-2-amine]
0.066 µM	CN(C)c1ccc(NC(=O)N2CCC(Nc3nccc(-c4c(-c5ccc(F)cc5)nc5occn45)n3)CC2)cc1 [Example 175, N-[4-(dimethylamino)phenyl]-4-({4-[6-(4-fluorophenyl)imidazo[2,1-b][1,3]oxazol-5-yl]pyrimidin-2-yl}amino)piperidine-1-carboxamide]
0.009 µM	O=S(=O)(c1ccc(O)cc1)N1CCC[C@@H](Nc2nccc(-c3c(-c4cccc(O)c4)nc4sccn34)n2)C1 [Example 150, 3-{5-[2-({(3R)-1-[(4-hydroxyphenyl)sulfonyl]piperidin-3-yl}amino)pyrimidin-4-yl]imidazo[2,1-b][1,3]thiazol-6-yl}phenol]
